Results from patent publication US11180461B2, “Triazoles as Kv3 inhibitors” (AUTIFONY THERAPEUTICS LIMITED, priority 2012, dated 2021).

Biological target: T1, human Kv3.3 channels (hKv3.3) (Homo sapiens, UniProt Q14003)
T1 construct: expressed in transfected cells
T1 sequence (Q14003 1-757): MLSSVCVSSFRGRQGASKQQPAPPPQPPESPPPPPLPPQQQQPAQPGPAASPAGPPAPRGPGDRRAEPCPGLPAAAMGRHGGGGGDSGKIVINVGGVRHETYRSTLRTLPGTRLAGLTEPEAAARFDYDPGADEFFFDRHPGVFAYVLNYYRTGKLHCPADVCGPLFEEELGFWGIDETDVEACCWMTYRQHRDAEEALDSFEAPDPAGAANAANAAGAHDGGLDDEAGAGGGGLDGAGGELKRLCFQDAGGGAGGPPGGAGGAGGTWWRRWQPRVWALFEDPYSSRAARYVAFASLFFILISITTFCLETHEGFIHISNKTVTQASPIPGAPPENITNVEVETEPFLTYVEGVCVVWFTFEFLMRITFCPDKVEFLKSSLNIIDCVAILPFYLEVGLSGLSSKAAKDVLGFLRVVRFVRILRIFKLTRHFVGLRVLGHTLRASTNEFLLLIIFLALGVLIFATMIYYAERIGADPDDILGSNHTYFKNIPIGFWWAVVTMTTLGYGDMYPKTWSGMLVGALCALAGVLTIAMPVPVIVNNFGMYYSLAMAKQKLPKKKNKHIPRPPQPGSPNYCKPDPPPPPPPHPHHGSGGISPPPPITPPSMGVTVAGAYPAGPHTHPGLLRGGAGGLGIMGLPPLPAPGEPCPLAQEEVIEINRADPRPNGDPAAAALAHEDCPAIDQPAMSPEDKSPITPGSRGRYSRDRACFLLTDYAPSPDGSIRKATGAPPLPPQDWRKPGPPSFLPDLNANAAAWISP
Experiment: hKv3.3 recombinant cell assay, IonWorks Quattro planar array electrophysiology
Assay type: cell-based
Conditions: 12.5 micromolar; mean, n=2
Excerpt: The ability of the compounds of the invention to modulate the voltage-gated potassium channel subtypes Kv3.2/3.1 may be determined using the following assay. The assay may also be used to determine the ability of compounds of the invention to modulate the voltage-gated potassium channel Kv3.3. Analogous methods may be used to investigate the ability of the compounds of the invention to modulate other channel subtypes.
To assess compound effects on human Kv3.3 channels (hKv3.3), a stable cell line expressing human Kv3.3 channels was created by transfecting Chinese Hamster Ovary (CHO)—K1 cells with a pBacMire_KCNC-3 vector. Cells were cultured in DMEM/F12 (Gibco) supplemented with 10% Foetal Bovine Serum (Gibco), 1× non-essential amino acids (Invitrogen) and geneticin (G418) 400 microg/mL. Cells were grown and maintained at 37° C. in a humidified environment containing 5% CO2 in air. […]
Experiments were conducted at room temperature using IonWorks Quattro™ planar array electrophysiology technology (Molecular Devices Corp.) with PatchPlate™ PPC. […] Planar electrode hole resistances (Rp) were determined by applying a 10 mV voltage step across each well. […] Test pulses protocol may be performed in the absence (pre-read) and presence (post-read) of the test compound. Pre- and post-reads may be separated by the compound addition followed by a 3 minute incubation. […]

increase in human Kv3.3 peak current at 0 mV: 75%
SMILES: Cc1ccc(Oc2ccc(-n3c(C)n[nH]c3=O)cn2)c2c1OCC21CC1 [Example 14, 5-methyl-4-{6-[(7-methylspiro[1-benzofuran-3,1′-cyclopropan]-4-yl)oxy]pyridin-3-yl}-2,4-dihydro-3H-1,2,4-triazol-3-one]
